In US20070208087A1, “Compounds, compositions and methods for the treatment of inflammatory diseases” (priority 2001, published 2007):
Where “and” joins values, the source holds several entries; their conditions need not be identical. Equal values may be shown once. Read-outs that look alike come from different tables or passages of the source.

Tests used:
Format in all cases: cell-based
[1] = system: EOC 13.31 microglia cells; test: NO release inhibition in LPS/IFNγ stimulated microglia, concurrent treatment, Griess reaction at 24 hours (Example 6); settings: for NO release, Avg / inhibition at 50 µM: 24 hours; for inhibition at 50 µM: Microglia
Protocol: The purpose of this experiment was to screen compounds 3, 4, 21, 26, 51, 52, 66, and 78 for their ability to inhibit Nitric oxide release from microglia. […] EOC 13.31 microglia cells were plated into 96 well plates for 24 hours. Confluent cells were treated with 50 μM of the bis- and tris-dihydroxyaryl compounds either with or without stimulation at 1 pg/ml LPS, and 1 ng/ml IFNγ. NO release was measured at 24 hours using the Griess reaction which is a spectrophotometric measure of NO release (reagents from Promega).

microglia = test: Ranking of NO release inhibition (Example 12); settings: Microglia, ranking table
Description: The bis- and tris-dihydroxyaryl compounds were ranked in order of effectiveness for the inhibition of NO release as set out in Table 8.

[2] = system: EOC 13.31 microglia cells; test: Inhibition of NO release from microglia following 24 hours pretreatment (Example 10); settings: for inhibition at 50 µM: Microglia
Protocol: This experiment was designed to determine if pretreatment for 24 hours with bis- and tris-dihydroxyaryl compounds changes NO inhibition previously observed with concurrent exposure of bis- and tris-dihydroxyaryl compounds. […] This study seeks to determine if pretreatment with bis- and tris-dihydroxyaryl compounds increases NO release inhibition. EOC 13.31 microglia cells were plated at 1×10^6 cells/ml in 96 well plates. After 48 hours, confluent cells were exposed to 50 μM compound (stock 10 mM in DMSO) prepared in fresh cell culture media. After 24 hours, 10 μg/ml LPS and 10 ng/ml IFNγ was added to wells directly without a media change. Cells were incubated for a further 48 hours and nitric oxide release was measured using the Griess Reaction.

Microglial cells = test: Dose response inhibition of NO release from microglia, 0.75-200 μM (Example 8)
Protocol: This experiment was designed to determine dose response inhibition of NO release from microglia by bis- and tris-dihydroxyaryl compounds when stimulated with LPS/IFNγ. […] This experiment is designed to determine a dose response for various bis- and tris-dihydroxyaryl compounds. Microglial cells were plated into 96 well plates at 1×10^5 cells/ml. […] The doses tested were: 0.75 μM, 1.56 μM, 3.125 μM, 6.25 μM, 12.5 μM, 25 μM, 50 μM, 100 μM and 200 μM. Nitric oxide release was measured after 48 hours using the Griess reaction.

[3] = Compound Only (without LPS/IFNγ), 50 μM
[4] = Compound + LPS/IFNγ, read-out: % inhibition of NO release
[5] = Table 2 summary, LPS/IFNγ, read-out: % Inhibition (summary of inhibition of NO release)
[6] = 50 uM pretreatment 24 hours, then LPS/IFNγ 48 hours, single replicates
[7] = 50 uM pretreatment 24 hours, then LPS/IFNγ 48 hours, read-out: Avg % Inhibition
[8] = 50 uM pretreatment 24 hours, then LPS/IFNγ 48 hours, single replicates, read-out: % inhibition
[9] = dose 0.75 μM, 48 hours, single replicates
[10] = dose 1.56 μM, 48 hours, single replicates
[11] = dose 3.125 μM, 48 hours, single replicates
[12] = dose 6.25 μM, 48 hours, single replicates
[13] = dose 12.5 μM, 48 hours, single replicates
[14] = dose 25 μM, 48 hours, single replicates
[15] = dose 50 μM, 48 hours, single replicates
[16] = dose 100 μM, 48 hours, single replicates
[17] = dose 200 μM, 48 hours, single replicates

Compound: O=C(CCC(=O)Nc1ccc(O)c(O)c1)Nc1ccc(O)c(O)c1 [Compound 66, succinic acid bis(3,4-dihydroxyanilide)]
- NO release, Avg ([1]; Compound + LPS/IFNγ, 50 μM): 15.4762 µM
- NO release, Avg [1, 3]: 0.8333 µM
- inhibition at 50 µM [1, 4]: 16.9%
- inhibition at 50 µM [1, 5]: 16.9%
- inhibition at 50 µM (microglia): 17%
- % inhibition [2, 6]: 59.20% and 65.21%
- inhibition at 50 µM [2, 7]: 64.3%
- inhibition at 50 µM [2, 8]: 68.4%

Compound: O=C(NCCc1ccc(O)c(O)c1)Nc1ccc(O)c(O)c1 [Compound 78, 1-(3,4-dihydroxyphenyl)-3-(3,4-dihydroxyphenethyl)urea]
- NO release, Avg ([1]; Compound + LPS/IFNγ, 50 μM): 18.7925 µM
- NO release, Avg [1, 3]: 1.1667 µM
- inhibition at 50 µM [1, 4]: -0.9%
- inhibition at 50 µM [1, 5]: -0.9%
- inhibition at 50 µM (microglia): -1%
- % inhibition [2, 6]: 57.93% and 69.00%
- inhibition at 50 µM [2, 7]: 65.5%
- inhibition at 50 µM [2, 8]: 69.6%

Compound: Oc1ccc(CCc2ccc(O)c(O)c2)cc1O [Compound 4, 1,2-bis(3,4-dihydroxyphenyl)ethane]
- inhibition of NO release, in words ([1]; 50 μM, LPS/IFNγ stimulated microglial cells): very effective inhibitors of NO release
- NO release, Avg ([1]; Compound + LPS/IFNγ, 50 μM): 1.0417 µM
- NO release, Avg [1, 3]: 0.8660 µM
- inhibition at 50 µM [1, 4]: 94.4%
- inhibition at 50 µM [1, 5]: 94.4%
- inhibition at 50 µM (microglia): 94%
- μM NO release [2, 6]: 0.000 µM
- inhibition at 50 µM [2, 7]: 100%
- inhibition at 50 µM [2, 8]: 100%
- inhibition at 50 µM ([2]; 50 μM pretreatment, read-out: inhibition of NO release following pretreatment): > 75%
- inhibition at 0.75 µM (Microglial cells; Microglia, 48 h, dose 0.75 μM): -11.1%
- inhibition at 1.56 µM (Microglial cells; Microglia, 48 h, dose 1.56 μM): 2.52%
- inhibition at 3.125 µM (Microglial cells; Microglia, 48 h, dose 3.125 μM): 6.14%
- inhibition at 6.25 µM (Microglial cells; Microglia, 48 h, dose 6.25 μM, 48 hours, read-out: Avg % Inhibition): 36.2%
- inhibition at 6.25 µM (Microglial cells; Microglia, 48 h, dose 6.25 μM, 48 hours, single replicates, read-out: % inhibition): 42.2%
- inhibition at 12.5 µM (Microglial cells; Microglia, 48 h, dose 12.5 μM, 48 hours, read-out: Avg % Inhibition): 82.7%
- inhibition at 12.5 µM (Microglial cells; Microglia, 48 h, dose 12.5 μM, 48 hours, single replicates, read-out: % inhibition): 85.1%
- inhibition at 25 µM (Microglial cells; Microglia, 48 h, dose 25 μM, 48 hours, read-out: Avg % Inhibition): 86.2%
- inhibition at 25 µM (Microglial cells; Microglia, 48 h, dose 25 μM, 48 hours, single replicates, read-out: % inhibition): 85.6%
- inhibition at 50 µM (Microglial cells; Microglia, 48 h, dose 50 μM, 48 hours, read-out: Avg % Inhibition): 86.5%
- inhibition at 50 µM (Microglial cells; Microglia, 48 h, dose 50 μM, 48 hours, single replicates, read-out: % inhibition): 87.2%
- inhibition at 100 µM (Microglial cells; Microglia, 48 h, dose 100 μM, 48 hours, read-out: Avg % Inhibition): 82.2%
- inhibition at 100 µM (Microglial cells; Microglia, 48 h, dose 100 μM, 48 hours, single replicates, read-out: % inhibition): 83%
- inhibition at 200 µM (Microglial cells; Microglia, 48 h, dose 200 μM, 48 hours, read-out: Avg % Inhibition): 75%
- inhibition at 200 µM (Microglial cells; Microglia, 48 h, dose 200 μM, 48 hours, single replicates, read-out: % inhibition): 77.4%
- μM NO release Avg (Microglial cells; dose 0.75 μM, 48 hours): 27.011 µM
- % inhibition (Microglial cells; [9]): −8.45% and −9.87% and −14.83%
- OD values (printed under head μM NO release) (Microglial cells; [9]): 0.229 and 0.22 and 0.222
- μM NO release (Microglial cells; [9]): 27.931 µM and 26.379 µM and 26.724 µM
- μM NO release Avg (Microglial cells; dose 1.56 μM, 48 hours): 23.709 µM
- % inhibition (Microglial cells; [10]): 6.85% and 4.93% and −4.20%
- OD values (printed under head μM NO release) (Microglial cells; [10]): 0.214 and 0.197 and 0.2
- μM NO release (Microglial cells; [10]): 25.345 µM and 22.656 µM and 23.125 µM
- μM NO release Avg (Microglial cells; dose 3.125 μM, 48 hours): 22.829 µM
- % inhibition (Microglial cells; [11]): 12.63% and 10.71% and −4.91%
- OD values (printed under head μM NO release) (Microglial cells; [11]): 0.215 and 0.188 and 0.191
- μM NO release (Microglial cells; [11]): 25.517 µM and 21.250 µM and 21.719 µM
- μM NO release Avg (Microglial cells; dose 6.25 μM, 48 hours): 15.521 µM
- % inhibition (Microglial cells; [12]): 40.26% and 26.12%
- OD values (printed under head μM NO release) (Microglial cells; [12]): 0.167 and 0.142 and 0.145
- μM NO release (Microglial cells; [12]): 17.969 µM and 14.063 µM and 14.531 µM
- μM NO release Avg (Microglial cells; dose 12.5 μM, 48 hours): 4.21 µM
- % inhibition (Microglial cells; [13]): 84.07% and 78.93%
- OD values (printed under head μM NO release) (Microglial cells; [13]): 0.083 and 0.071 and 0.073
- μM NO release (Microglial cells; [13]): 5.125 µM and 3.625 µM and 3.875 µM
- μM NO release Avg (Microglial cells; dose 25 μM, 48 hours): 3.357 µM
- % inhibition (Microglial cells; [14]): 87.89%
- OD values (printed under head μM NO release) (Microglial cells; [14]): 0.071 and 0.07 and 0.064
- μM NO release (Microglial cells; [14]): 3.625 µM and 3.500 µM and 2.947 µM
- μM NO release Avg (Microglial cells; dose 50 μM, 48 hours): 3.292 µM
- OD values (printed under head μM NO release) (Microglial cells; [15]): 0.071 and 0.067 (2×)
- μM NO release (Microglial cells; [15]): 3.625 μM and 3.125 μM (2×)
- μM NO release Avg (Microglial cells; dose 100 μM, 48 hours): 4.333 µM
- % inhibition (Microglial cells; [16]): 82.01% and 81.50%
- OD values (printed under head μM NO release) (Microglial cells; [16]): 0.078 and 0.075 and 0.077
- μM NO release (Microglial cells; [16]): 4.500 µM and 4.125 µM and 4.375 µM
- Avg % Inhibition (Microglial cells; dose 200 μM, 48 hours): 75.332%
- μM NO release Avg (Microglial cells; dose 200 μM, 48 hours): 6.000 µM
- % inhibition (Microglial cells; [17]): 74.30%
- OD values (printed under head μM NO release) (Microglial cells; [17]): 0.092 (2×) and 0.086
- μM NO release (Microglial cells; [17]): 6.250 μM (2×) and 5.500 μM
- inhibition of NO release, in words (Microglial cells; dose response 0.75-200 μM): effective inhibitors of NO release
